Results from patent US20030228357A1, “Dry granulated formulations of azithromycin” (Pfizer Inc., priority 2002, published 2003).
Each block holds one molecule with its values, some of them ahead of it.

What was measured:
Type in all cases: physicochemical
[1] = Slug (compact) hardness, Schleuniger hardness tablet tester; settings: diluent MCC
From the text: A compaction simulator was used to compress the blends. The compaction simulator was designed as a single station tablet press in which the compression dwell time can be adjusted to simulate different types of tablet presses. All the formulations were slugged on the compaction simulator configured as the Kilian RX-67 press with a dwell time of 0.3145 seconds using […] round flat face tooling. The slugs were then comminuted using a Fitz mill with a 0.125″ screen with knives forward and run at slow speed. […] The slugs were tested for hardness (kP scale), using a Schleuniger hardness tablet tester (Dr. Schleuniger Pharmatron AG, Solothurn, Switzerland).

[2] = Density and Carr's Compressibility Index (flowability) of dry blends and dry granulations
From the text: Carr's Compressibility Index was used to evaluate the flowability of the four dry granulations. Carr's Compressibility Index is a simple test to evaluate flowability by comparing both the initial and final (tapped) bulk volumes and the rate of packing down. A useful empirical guide to flow is given by Carr's compressibility index: Compressibility Index(%)=[(tapped density−initial density)/tapped density]×100 […] The procedure is described in Int. J. Pharm. Tech. & Prod. Mfr., 6(3) 10-16, 1985.

[3] = Tablet hardness, Schleuniger hardness tablet tester
[4] = Tablet friability, Vanderkamp Friabulator (100 rotations/4 minutes)
Description: Friability is a standard test known to one skilled in the art. Friability is measured under standardized conditions by weighing out a certain number of tablets (generally 20 tablets or less), placing them in a rotating Plexiglas drum in which they are lifted during replicate revolutions by a radial lever, and then dropped approximately 8 inches. After replicate revolutions (typically 100 revolutions at 25 rpm), the tablets are reweighed and the percentage of formulation abraded or chipped is calculated. The friability of the tablets, of the present invention, is preferably in the range of about 0% to 3%, and values about 1%, or less, are considered acceptable for most drug and food tablet contexts. Friability which approaches 0% is particularly preferred.
(§1) All four formulations were compressed on the compaction simulator using either 0.344″×0.688″ oval tooling, or ½″ standard round concave (SRC) tooling. The tablets were tested for hardness (kP scale), using a Schleuniger hardness tablet tester (Dr. Schleuniger Pharmatron AG, Solothurn, Switzerland), and for friability (100 rotations/4 minutes) using a Vanderkamp Friabulator Tablet Tester (Vankel, Cary, N.C., US).

[5] = Tablet hardness, Schleuniger hardness tablet tester; settings: Table 4C, low drug loading, diluent MCC
Description: as §1

[6] = Indices of tableting performance (Hiestand) of bulk azithromycin; settings: forms N, M, G, A milled, F and J unmilled, sesquihydrate
Description: Indices of tableting performance, for several azithromycin forms, were assessed to identify any mechanical deficiencies or attributes that may affect tablet formulation for these azithromycin forms. This assessment was performed in accordance with the procedures described in “Indices of Tableting, Performance” […] and D. P. Smith, Powder Technology 38 [1984] pp. 145-159. Specifically, the Brittle Fracture Index, BFI, was calculated from the ratio of a material's regular tensile strength to its compromised tensile strength. Strain Index, SI, was determined from the dynamic indentation hardness test. Worst Case Bonding Index was determined by assessing the extent of particle bonding remaining after decompression assuming a very short compression dwell time and a plastic mechanism of particle separation during decompression. Tableting Indices were determined for bulk azithromycin lots of six different crystalline forms, specifically forms N, M, G, A, F and J. Forms N, M and G were milled with a Fitzmill (Model JT, The Fitzpatrick Co., Elmhurst, Ill.) using a 0.027'' screen and knives at high speed in an attempt to match the smaller particle size of milled Form A. Unmilled forms F and J were evaluated “as is” due to their relatively small particle sizes.

[7] = Table 4A, low drug loading (35.2 wt % azithromycin), diluent MCC
[8] = Table 4B, high drug loading (58.2 wt % azithromycin), diluent MCC
[9] = Table 7A, 55.76 wt % azithromycin, lactose anhydrous, corn starch, roller compaction 850 psi, sesquihydrate
[10] = Table 4D, high drug loading, diluent MCC, modified capsule shape
[11] = Table 4C, low drug loading, diluent Lactose, Oval tooling
[12] = Table 4C, low drug loading, diluent Lactose, SRC (½″) tooling

Avg Slug Hardness ([1]; Table 4A, low drug loading (35.2 wt % azithromycin)): 13 kP
Avg Slug Hardness ([1]; Table 4B, high drug loading (58.2 wt % azithromycin)): 9 kP
Dry Granulation Carr's Index [2, 7]: 25%
Dry Granulation Density As Is [2, 7]: 0.51 g/cc
Dry Granulation Density Tapped [2, 7]: 0.68 g/cc
Dry Granulation Carr's Index [2, 8]: 25%
Dry Granulation Density As Is [2, 8]: 0.53 g/cc
Dry Granulation Density Tapped [2, 8]: 0.71 g/cc
Dry Granulation Density Tapped ([2]; Table 7A, 55.76 wt % azithromycin, lactose anhydrous, corn starch, roller compaction 850 psi): 0.86 g/cc
Dry Granulation Carr's Index [2, 9]: 22%
Dry Granulation Density As Is [2, 9]: 0.67 g/cc
Avg Tablet Hardness [3, 10]: 5.8 kP
Friability ([4]; Table 4C, low drug loading, diluent MCC, Oval tooling): 1.30%
Friability ([4]; Table 4C, low drug loading, diluent MCC, SRC (½″) tooling): 0.78%
Friability [4, 10]: 0.41%
Avg Tablet Hardness ([5]; Oval tooling): 6.1 kP
Avg Tablet Hardness ([5]; SRC (½″) tooling): 5.3 kP
Strain Index (SI) [6]: 0.0043
Tensile Strength [6]: 1.03 Mpa
Worst Case Bonding Index (BIw) × 10^2 [6]: 0.8
SMILES: CC[C@H]1OC(=O)[C@H](C)[C@@H](O[C@H]2C[C@@](C)(OC)[C@@H](O)[C@H](C)O2)[C@H](C)[C@@H](O[C@@H]2O[C@H](C)C[C@H](N(C)C)[C@H]2O)[C@](C)(O)C[C@@H](C)CN(C)[C@H](C)[C@@H](O)[C@]1(C)O [Form G, azithromycin sesquihydrate]

SMILES: CCC1OC(=O)C(C)C(O[C@H]2C[C@@](C)(OC)[C@@H](O)C(C)O2)C(C)[C@@H](OC2OC(C)CC(N(C)C)[C@H]2O)[C@@](C)(O)C[C@@H](C)CN(C)[C@H](C)[C@@H](O)[C@]1(C)O (stereo partly drawn) [Form H, azithromycin monohydrate hemi-1,2 propanediol solvate]
Avg Tablet Hardness [3, 11]: 7.0 kP
Avg Tablet Hardness [3, 12]: 7.5 kP
Friability [4, 11]: Broken
Friability [4, 12]: 0.53%
